Results: patent publication US5235061A, “Fungicidal (1H-1,2,4-triazolyl)disilaalkanes” (priority 1991, dated 1993)
Where two headings read alike, the source gives them in different places.

Key:
Test in all cases: In vitro percent disease control (radii of spore growth on agar)
Format in all cases: cell-based
Fusarium moniliforme = system: Fusarium moniliforme
Method: (§1) The compounds of this invention were dissolved respectively in acetone in an amount equal to 10% of the final volume and then in purified water at the concentration of 100 ppm and 50 ppm.
(§2) Each of the solution was mixed with potato-sucrose-agar medium in a 6" petri dish and one of the fungi was spotted at the center of the dish. The dish was incubated in growth room for several days. The percent disease control was derived from the radii of spore growth. The screening tests in vitro condition are well-known to those skilled in the art.
(§3) The following fungi were used for the screening.
8) Fu.mo.; Fusarium moniliforme

Phytophthora capsisi = conditions: Phytophthora, read-out: % controlled, Phy ca.
Method: as §1, §2, §3
2) Phy. ca.; Phytophthora capsisi

Rhizoctonia solani = conditions: Rhizoctonia solani, read-out: % controlled, Rhy. so.
Method: as §1, §2, §3
7) Rhi.so.; Rhizoctonia solani

Pyricalaria oryzae = conditions: for inhibition of growth at 50 ppm: read-out: % controlled, Py. or., 50 ppm; for inhibition of growth at 100 ppm: read-out: % controlled, Py. or., 100 ppm
Method: as §1, §2, §3
6) Py.or.; Pyricalaria oryzae

[1] = system: Botryosphaeria dothidea Macrophoma sp.; conditions: Botryosphaeria dothidea, read-out: % controlled, Bo.do (Ma.)
Method: as §1, §2, §3
4) Bo.do(Ma); Botryosphaeria dothidea Macrophoma sp.

Glomerella cingulata = conditions: Colletotrichum gloeosporioides, read-out: % controlled, Glo.
Method: as §1, §2, §3
5) Glo.; Glomerella cingulata

Botry tris cinerea = conditions: read-out: % controlled, Bo ci.
Method: as §1, §2, §3
10) Bo.ci.; Botry tris cinerea

Physalospora baccae = conditions: read-out: % controlled, Phy ba.
Method: as §1, §2, §3
3) Phy. ba.; Physalospora baccae

Rhizopus sp. = conditions: Rhizopus
Method: as §1, §2, §3

Alternaria mali = conditions: Alternaria mali, read-out: % controlled, Al.
Method: as §1, §2, §3

[2] = 50 ppm, read-out: % controlled, Rhi. sp.
[3] = read-out: % controlled, Rhi. sp.

Row | Compound | % controlled, Fu. mo. (Fusarium moniliforme; 50 ppm) [%] | % controlled, Fu. mo. (Fusarium moniliforme; 100 ppm) [%] | inhibition of growth at 50 ppm (Phytophthora capsisi) [%] | inhibition of growth at 100 ppm (Phytophthora capsisi) [%] | inhibition of growth at 50 ppm (Rhizoctonia solani) [%] | inhibition of growth at 100 ppm (Rhizoctonia solani) [%] | inhibition of growth at 50 ppm (Pyricalaria oryzae) [%] | inhibition of growth at 100 ppm (Pyricalaria oryzae) [%] | inhibition of growth at 50 ppm [1] [%] | inhibition of growth at 100 ppm [1] [%] | inhibition of growth at 50 ppm (Glomerella cingulata) [%] | inhibition of growth at 100 ppm (Glomerella cingulata) [%] | inhibition of growth at 50 ppm (Botry tris cinerea) [%] | inhibition of growth at 100 ppm (Botry tris cinerea) [%] | inhibition of growth at 50 ppm (Physalospora baccae) [%] | inhibition of growth at 100 ppm (Physalospora baccae) [%] | inhibition of growth at 50 ppm (Rhizopus sp.; [2]) [%] | inhibition of growth at 100 ppm (Rhizopus sp.; [3]) [%] | inhibition of growth at 50 ppm (Alternaria mali) [%] | inhibition of growth at 100 ppm (Alternaria mali) [%] | further results
1 | C[Si](C)(C[Si](C)(Cn1cncn1)c1ccc(Cl)cc1)c1ccc(F)cc1 (stereo not drawn) [2-(4-chlorophenyl)-4-(4-fluorophenyl)-2,4-dimethyl-2,4-disila-1-(1H-1,2,4-triazol-1-yl)pentane] | 34 | 58 | 0 | 0 | 31 | 50 | 46 | 48 | 43 | 43 | 67 | 73 | 13 | 18 | 20 | 20 | 18 | 20 | 38 | 38 | –
2 | CCOc1ccc([Si](C)(Cn2cncn2)C[Si](C)(C)c2ccc(F)cc2)cc1 (stereo not drawn) [2-(4-ethoxyphenyl)-4-(4-fluorophenyl)-2,4-dimethyl-2,4-disila-1-(1H-1,2,4-triazol-1-yl)pentane] | 41 | 45 | 9 | 9 | 74 | 89 | 64 | 64 | 40 | 46 | 67 | 69 | 0 | 0 | 28 | 28 | 29 | 32 | 38 | 44 | –
3 | C=CC[Si](C[Si](C)(Cn1cncn1)c1ccc(F)cc1)(c1ccc(F)cc1)c1ccc(F)cc1 (stereo not drawn) [4,4,6-tris(4-fluorophenyl)-6-methyl-4,6-disila-7-(1H-1,2,4-triazole-1-yl)-1-heptane] | 58 | 63 | 50 | 60 | 78 | 78 | 100 | 100 | 74 | 78 | 71 | 77 | 69 | 66 | 53 | 74 | 19 | 43 | 63 | 72 | –
4 | C[Si](C)(C[Si](Cn1cncn1)(c1ccc(F)cc1)c1ccc(F)cc1)c1ccc(Cl)cc1 [4-(4-chlorophenyl)-2,2-bis(4-fluorophenyl)-4-methyl-2,4-disila-1-(1H-1,2,4-triazol-1-yl)pentane] | 45 | 56 | 10 | 12 | 100 | 100 | 76 | 87 | 76 | 87 | 87 | 90 | 76 | 80 | 80 | 100 | 78 | 89 | 32 | 34 | –
5 | C[Si](C)(C[Si](C)(Cn1cncn1)c1ccc(F)cc1)c1ccc(Cl)cc1 (stereo not drawn) [4-(4-chlorophenyl)-2-(4-fluorophenyl)-2,4-dimethyl-2,4-disila-1-(1H-1,2,4-triazol-1-yl)pentane] | 67 | 69 | 43 | 54 | 93 | 100 | 100 | 100 | 74 | 86 | 0 | 0 | 100 | 100 | 78 | 82 | 59 | 65 | 84 | 84 | –
6 | COc1ccc([Si](C)(Cn2cncn2)C[Si](C)(C)c2ccc(Cl)cc2)cc1 (stereo not drawn) [4-(4-chlorophenyl)-2-(4-methoxyphenyl)-2,4-dimethyl-2,4-disila-1-(1H-1,2,4-triazol-1-yl)pentane] | 28 | 41 | 43 | 59 | 100 | 100 | 100 | 100 | 34 | 66 | 56 | 82 | 40 | 80 | 50 | 60 | 32 | 48 | 30 | 62 | –
7 | CCOc1ccc([Si](C)(C)C[Si](C)(Cn2cncn2)c2ccc(F)cc2)cc1 (stereo not drawn) [4-(4-ethoxyphenyl)-2-(4-fluorophenyl)-2,4-dimethyl-2,4-disila-1-(1H-1,2,4-triazol-1-yl)pentane] | 58 | 63 | 50 | 60 | 78 | 78 | 100 | 100 | 74 | 78 | 71 | 77 | 69 | 66 | 53 | 74 | – | 43 | 63 | 72 | inhibition of growth at 50 ppm (Rhizopus sp.; read-out: % controlled, Rhi. sp., 50 ppm): 19%
8 | C[Si](C)(Cc1ccc(F)cc1)C[Si](C)(Cn1cncn1)c1ccc(F)cc1 (stereo not drawn) [4-(4-fluorobenzyl)-2-(4-fluorophenyl)-2,4-dimethyl-2,4-disila-1-(1H-1,2,4-triazol-1-yl)pentane] | 34 | 41 | 3 | 3 | 36 | 36 | 50 | 57 | 40 | 49 | 0 | 0 | 0 | 0 | 26 | 30 | 21 | 24 | 38 | 43 | –
9 | C=CC[Si](C)(Cn1cncn1)C[Si](CC=C)(CC=C)CC=C (stereo not drawn) [4-methyl-6-bis(2-propenyl)-4,6-disila-4-(1H-1,2,4-triazol-1-ylmethyl)-1,8-nonadiene] | 46 | 65 | 45 | 50 | 96 | 96 | 100 | 100 | 70 | 75 | 82 | 87 | 60 | 80 | 80 | 85 | 60 | 80 | 75 | 95 | –
